From patent US10676508B2, “DEPDC1-derived peptide and vaccine containing same” (OncoTherapy Science, Inc., priority 2015, dated 2020)

Key:
[1] = tested on: peptide-pulsed C1R-A01 cells; assay: In vitro CTL induction, IFN-gamma ELISPOT assay (HLA-A*0101); type: cell-based, human; settings: CTLs from HLA-A*0101-positive donors, DCs pulsed with 20 micro-g/ml peptide, day 21, versus unpulsed C1R-A01
Excerpt: Monocyte-derived dendritic cells (DCs) were used as the antigen-presenting cell to induce a cytotoxic T lymphocyte (CTL) response against peptides presented on human leukocyte antigens (HLAs). As described in the other sections, DCs were generated in vitro (Nakahara S et al., Cancer Res 2003, 63(14): 4112-8). Specifically, peripheral-blood mononuclear cells isolated from healthy volunteers (HLA-A*0101-positive) with the Ficoll-Paque plus solution (Pharmacia) were separated by attaching to plastic tissue culture dishes (Becton Dickinson) and concentrated as a monocyte fraction. The monocyte-concentrated population was cultured in the presence of 1000 IU/ml granulocyte macrophage colony-stimulating factor (R&D System) and 1000 IU/ml interleukin (IL)-4 (R&D System) in an AIM-V medium (Invitrogen) containing 2% heat-inactivated autologous serum (AS). After seven days of culturing, the cytokine-induced DCs were pulsed with 20 micro-g/ml each of the synthesized peptides in an AIM-V medium at 37 degrees C. for three hours in the presence of 3 micro-g/ml beta 2-microglobulin. Next, these peptide-pulsed DCs were inactivated by X-ray irradiation (20 Gy), and mixed in a 1:20 ratio with autologous CD8^+ T cells obtained by positive selection using the CD8 Positive Isolation Kit (Dynal). These culture products were seeded in a 48-well plate (Corning). Each well was made to contain 1.5×10^4 peptide-pulsed DCs, 3×10^5 CD8^+ T cells and 10 ng/ml IL-7 (R&D System) in 0.5 ml of the AIM-V/2% AS medium. Three days later, these culture products were added with a final concentration of 20 IU/ml IL-2 (CHIRON). On day 7 and day 14, T cells were further stimulated with peptide-pulsed autologous DCs. The DCs were prepared every time by the same method as above. On day 21, after the third peptide stimulation, CTL activities were examined against the peptide-pulsed C1R-A01 cells (Tanaka H et al., Br J Cancer 2001, 84(1): 94-9; Umano Y et al., Br J Cancer 2001, 84(8): 1052-7; Uchida N et al., Clin Cancer Res 2004, 10(24): 8577-86; Suda T et al., Cancer Sci 2006, 97(5): 411-9; Watanabe T et al., Cancer Sci 2005, 96(8): 498-506).
To examine specific CTL activity, an IFN-gamma ELISPOT assay and an IFN-gamma ELISA were performed. Specifically, peptide-pulsed C1R-A01 cells (1×10^4 cells/well) were prepared as the stimulator cell. The induced CTLs, i.e., CTL lines and CTL clones, were used as the responder cell. The IFN-gamma ELISPOT assay and IFN-gamma ELISA were performed according to the manufacturer's manual.

peptide-pulsed C1R-A11 = assay: In vitro CTL induction, IFN-gamma ELISPOT assay (HLA-A*1101); type: cell-based, human; settings: CTLs from HLA-A*1101-positive donors, DCs pulsed with 20 micro-g/ml peptide, day 21, versus unpulsed C1R-A11
Excerpt: Monocyte-derived dendritic cells (DCs) were used as the antigen-presenting cell to induce a cytotoxic T lymphocyte (CTL) response against peptides presented on human leukocyte antigens (HLAs). As described in the other sections, DCs were generated in vitro (Nakahara S et al., Cancer Res 2003, 63(14): 4112-8). Specifically, peripheral-blood mononuclear cells isolated from healthy volunteers (HLA-A*1101-positive) with the Ficoll-Paque plus solution (Pharmacia) were separated by attaching to plastic tissue culture dishes (Becton Dickinson) and concentrated as a monocyte fraction. The monocyte-concentrated population was cultured in the presence of 1000 IU/ml granulocyte macrophage colony-stimulating factor (R&D System) and 1000 IU/ml interleukin (IL)-4 (R&D System) in an AIM-V medium (Invitrogen) containing 2% heat-inactivated autologous serum (AS). After seven days of culturing, the cytokine-induced DCs were pulsed with 20 micro-g/ml each of the synthesized peptides in an AIM-V medium at 37 degrees C. for three hours in the presence of 3 micro-g/ml beta 2-microglobulin.
Next, these peptide-pulsed DCs were inactivated by X-ray irradiation (20 Gy), and mixed in a 1:20 ratio with autologous CD8^+ T cells obtained by positive selection using the CD8 Positive Isolation Kit (Dynal). These culture products were seeded in a 48-well plate (Corning). […]

Row | Sequence | peptide-specific CTL activity (IFN-gamma production, ELISPOT) [1] | peptide-specific CTL activity (IFN-gamma production, ELISPOT) (peptide-pulsed C1R-A11)
1 | NVDDNNQLF (a peptide derived from DEPDC1) [SEQ ID NO: 85] | potent IFN-gamma production | –
2 | TAGEAVDWLY (a peptide derived from DEPDC1) [SEQ ID NO: 92] | potent IFN-gamma production | –
3 | AGEAVDWLY (a peptide derived from DEPDC1) [SEQ ID NO: 82] | potent IFN-gamma production | –
4 | SNDMNNPTY (a peptide derived from DEPDC1) [SEQ ID NO: 86] | potent IFN-gamma production | –
5 | EVWRYVILIY (a peptide derived from DEPDC1) [SEQ ID NO: 99] | potent IFN-gamma production | –
6 | LTFEYYELF (a peptide derived from DEPDC1) [SEQ ID NO: 88] | potent IFN-gamma production | –
7 | HSEENIQKPF (a peptide derived from DEPDC1) [SEQ ID NO: 101] | potent IFN-gamma production | –
8 | ESQGVPPGPY (a peptide derived from DEPDC1) [SEQ ID NO: 91] | potent IFN-gamma production | –
9 | HQEILQVPSY (a peptide derived from DEPDC1) [SEQ ID NO: 103] | potent IFN-gamma production | –
10 | KSDDLPHWV (a peptide derived from DEPDC1) [SEQ ID NO: 81] | potent IFN-gamma production | –
11 | LSENSLLPA (a peptide derived from DEPDC1) [SEQ ID NO: 84] | potent IFN-gamma production | –
12 | STECLLLSLL (a peptide derived from DEPDC1) [SEQ ID NO: 104] | potent IFN-gamma production | –
13 | FQKEYPLIY (a peptide derived from DEPDC1) [SEQ ID NO: 87] | potent IFN-gamma production | –
14 | LFAPLPTYSY (a peptide derived from DEPDC1) [SEQ ID NO: 96] | potent IFN-gamma production | –
15 | VSDRSSGIH (a peptide derived from DEPDC1) [SEQ ID NO: 89] | potent IFN-gamma production | –
16 | RSSTRRNSY (a peptide derived from DEPDC1) [SEQ ID NO: 21] | potent IFN-gamma production | –
17 | TTESEAALF (a peptide derived from DEPDC1) [SEQ ID NO: 83] | potent IFN-gamma production | –
18 | RSNDMNNPTY (a peptide derived from DEPDC1) [SEQ ID NO: 58] | potent IFN-gamma production | –
19 | FLESKPKQEF (a peptide derived from DEPDC1) [SEQ ID NO: 102] | potent IFN-gamma production | –
20 | LPEPLLTFEY (a peptide derived from DEPDC1) [SEQ ID NO: 107] | potent IFN-gamma production | –
21 | PTTESEAALF (a peptide derived from DEPDC1) [SEQ ID NO: 94] | specific IFN-gamma production was not observed | –
22 | QEDVEEVWRY (a peptide derived from DEPDC1) [SEQ ID NO: 106] | potent IFN-gamma production | –
23 | ATINKRLCK (a peptide derived from DEPDC1) [SEQ ID NO: 2] | – | specific IFN-gamma production was not observed
24 | QTAVEKHLDY (a peptide derived from DEPDC1) [SEQ ID NO: 90] | potent IFN-gamma production | –
